Source: patent US12370170B2, “Composition comprising naphthoquinone-based compound as active ingredient, for preventing or ameliorating fatigue, cachexia, pain, cognitive decline and hematopoietic stem cell reduction which are side effects related to anticancer drug treatment” (NADIANBIO LTD., priority 2016, dated 2025)

Experiments:
Format in all cases: in vivo, C57BL/6 mice
[1] = test system: TNF-α; test: TNF-α expression in femur by immunohistostaining, 4×ACP animal model; details: dunnione 80 mg/kg oral
Protocol: (§1) In this invention, 11 weeks old C57BL/6 mice were used. All the mice used in the experiments of the invention were raised in an aseptic animal room at the temperature of 22˜26 L with the humidity of 55˜60%. The mice were allowed to take general solid feed (SAMTACO Co., Ltd., Korea) and water freely. The mice were adapted for 1 week before the experiment. All the experiments were performed after obtaining approval from the clinical trial management committee in accordance with the laboratory animal care and ethics regulations of Wonkwang University. The mouse animal model of the present invention was treated with different anticancer drugs. Particularly, one kind of anticancer drug was administered intraperitoneally one time or more, or several kinds of anticancer drugs were administered once or more times or at different concentrations, leading to the establishment of the animal model of the invention. In the adriamycin-induced animal model, the mice were divided into 6 groups as follows: the control group administered with PBS (Control, 5 mice), the group administered intraperitoneally with adriamycin (4 mg/kg/day) 3 times (ADR, 5 mice), the group administered orally with dunnione or β-lapachone from 3 days before the adriamycin treatment daily (20 mg/kg, 5 mice), and the group administered with dunnione or β-lapachone (20 mg/kg, 5 mice). […]

[2] = test system: orexin; test: Orexin protein in hypothalamus by ELISA, 4×ACP animal model; details: dunnione 80 mg/kg oral daily from 3 days before, 2 days after ACP
Protocol: as §1, with “invention.” for “invention. In the adriamycin-induced animal model, the mice were divided into 6 groups as follows: the control group administered with PBS (Control, 5 mice), the group administered intraperitoneally with adriamycin (4 mg/kg/day) 3 times (ADR, 5 mice), the group administered orally with dunnione or β-lapachone from 3 days before the adriamycin treatment daily (20 mg/kg, 5 mice), and the group administered with dunnione or β-lapachone (20 mg/kg, 5 mice).”
To analyze orexin protein in the 4×ACP animal model prepared by the same manner as described in Example 8, the hypothalamus of the mouse was extracted, followed by the preparation of a homogenate. Orexin (MyBioSource, MBS2505504) was analyzed by ELISA to investigate the regulatory effect of β-lapachone on orexin.

[3] = test system: F4/80 positive cells (macrophages); test: Inflow of macrophages into femur, F4/80 immunohistostaining, 4×ACP animal model; details: dunnione 80 mg/kg oral
Protocol: as §1

[4] = test system: inflammatory cytokines TNF-α, IL-1β, IL-6 and IL-17; test: Plasma inflammatory cytokines by ELISA in 3× and 6×ACP animal model; details: dunnione 20 mg/kg oral daily from 3 days before, 3 days after ACP
Protocol: as §1, with “invention.” for “invention. In the adriamycin-induced animal model, the mice were divided into 6 groups as follows: the control group administered with PBS (Control, 5 mice), the group administered intraperitoneally with adriamycin (4 mg/kg/day) 3 times (ADR, 5 mice), the group administered orally with dunnione or β-lapachone from 3 days before the adriamycin treatment daily (20 mg/kg, 5 mice), and the group administered with dunnione or β-lapachone (20 mg/kg, 5 mice).”
Plasma was isolated from the 3× and 6×ACP animal model prepared by the same manner as described in Example 7, and the inflammatory cytokines TNF-α, IL-1β, IL-6 and IL-17 were analyzed by ELISA.

[5] = Muscle loss (body weight, gastrocnemius muscle weight) in 3×ACP animal model; details: 3×ACP i.p. once; dunnione 20 mg/kg oral daily from 3 days before; 2 and 4 days after ACP
Protocol: as §1, with “invention.” for “invention. In the adriamycin-induced animal model, the mice were divided into 6 groups as follows: the control group administered with PBS (Control, 5 mice), the group administered intraperitoneally with adriamycin (4 mg/kg/day) 3 times (ADR, 5 mice), the group administered orally with dunnione or β-lapachone from 3 days before the adriamycin treatment daily (20 mg/kg, 5 mice), and the group administered with dunnione or β-lapachone (20 mg/kg, 5 mice).”
To investigate the regulatory effect of dunnione on muscle loss in the 3×ACP animal models prepared by the same manner as described in Example 6, the changes of body weight and gastrocnemius muscle weight were measured after the drug treatment.

CC1OC2=C(C(=O)C(=O)c3ccccc32)C1(C)C (stereo not shown) [dunnione, 2,3-dihydro-2,3,3-trimethyl naphtho [1,2-b]furan-4,5-dione]
up-regulation of TNF-α in the bone (femur) [1]: significantly suppressed
orexin reduction in the hypothalamus [2]: recovered significantly almost to the same level of the control group
increased F4/80 positive cells in the bone (femur) [3]: significantly reduced
level of inflammatory cytokines (TNF-α, IL-1β, IL-6, IL-17) in plasma ([4]; 3×ACP i.p. once): significantly inhibited
level of inflammatory cytokines (TNF-α, IL-1β, IL-6, IL-17) in plasma ([4]; 6×ACP i.p. once): significantly inhibited
reduction of gastrocnemius muscle weight and gastrocnemius muscle weight change [5]: significantly restored
weight loss (body weight) [5]: significantly restored
